According to PubChem BioAssay (NCI):
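Compound exposure: 48 hours, 5 concentrations, 96-well plates. The concentration for 50% growth inhibition is given as GI50. TGI marks complete inhibition of growth.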

Key:
Assay in all cases: growth of human tumour cells (NCI), 48 h
HOP-18 NSCLC = tested on: HOP-18 NSCLC
SNB-78 CNS = tested on: SNB-78 CNS
DMS 114 small cell lung = tested on: DMS 114 small cell lung
XF 498 CNS = tested on: XF 498 CNS
DMS 273 small cell lung = tested on: DMS 273 small cell lung
M19-MEL melanoma = tested on: M19-MEL melanoma
DLD-1 colon = tested on: DLD-1 colon
RXF-631 renal = tested on: RXF-631 renal
MDA-N = tested on: MDA-N

CN(C)c1ccc(/C=C/C(=O)[O-])cc1.CN(C)c1ccc(/C=C/C(=O)[O-])cc1.[Cu+2]
TGI (HOP-18 NSCLC): > 100 µM | TGI (SNB-78 CNS): > 100 µM | TGI (DMS 114 small cell lung): > 100 µM | TGI (XF 498 CNS): > 100 µM | GI50 (DMS 273 small cell lung): 54 µM | TGI (DMS 273 small cell lung): > 100 µM | TGI (M19-MEL melanoma): > 61.2 µM | TGI (DLD-1 colon): > 100 µM

COC(=O)CCC(NC(=S)N/N=C/c1ccccn1)C(=O)OC (stereo not drawn)
TGI (HOP-18 NSCLC): > 100 µM | TGI (SNB-78 CNS): > 100 µM | TGI (DMS 114 small cell lung): > 100 µM | TGI (XF 498 CNS): > 100 µM | TGI (RXF-631 renal): > 100 µM | TGI (M19-MEL melanoma): > 100 µM | TGI (DLD-1 colon): > 100 µM

Nc1cc(F)ccc1CC(=O)O
TGI (MDA-N): > 100 µM

O=C1/C(=N\O)c2ccccc2S1(=O)=O
TGI (HOP-18 NSCLC): > 100 µM | TGI (SNB-78 CNS): > 100 µM | TGI (DMS 114 small cell lung): > 100 µM | TGI (DMS 273 small cell lung): > 100 µM | TGI (M19-MEL melanoma): > 100 µM | TGI (DLD-1 colon): > 100 µM

C#CCNC(=O)N(CC#C)N=O
TGI (HOP-18 NSCLC): > 100 µM | TGI (SNB-78 CNS): > 100 µM | TGI (DMS 114 small cell lung): > 100 µM | TGI (XF 498 CNS): > 100 µM | TGI (DMS 273 small cell lung): > 100 µM | TGI (M19-MEL melanoma): > 100 µM | TGI (DLD-1 colon): > 100 µM

N.N.NCCCCCN.O=C([O-])CCl.O=C([O-])CCl.O=C([O-])CCl.O=C([O-])CCl.[Pt+4].[Pt+4]
GI50 (HOP-18 NSCLC): 6.51 µM | TGI (HOP-18 NSCLC): > 100 µM | GI50 (SNB-78 CNS): 24 µM | TGI (SNB-78 CNS): > 100 µM | GI50 (DMS 273 small cell lung): 1.29 µM | TGI (DMS 273 small cell lung): > 100 µM | GI50 (DLD-1 colon): 19 µM | TGI (DLD-1 colon): > 100 µM

Nc1c(-c2cn(Cc3ccccc3)c3ccccc23)[n+]([O-])c2ccccc2[n+]1[O-]
TGI (SNB-78 CNS): > 100 µM | TGI (DMS 114 small cell lung): > 100 µM | TGI (XF 498 CNS): 78.1 µM | TGI (DMS 273 small cell lung): 81.8 µM | TGI (M19-MEL melanoma): > 100 µM | TGI (DLD-1 colon): > 100 µM

CC1=Nc2ccccc2NC(c2ccoc2)C1 (stereo not drawn)
TGI (HOP-18 NSCLC): > 100 µM | TGI (SNB-78 CNS): > 100 µM | TGI (DMS 114 small cell lung): > 100 µM | TGI (RXF-631 renal): > 100 µM | TGI (DMS 273 small cell lung): > 100 µM | TGI (M19-MEL melanoma): > 100 µM | TGI (DLD-1 colon): > 100 µM

Cc1cc([N+](=O)[O-])ccc1NC(=O)C(=O)C(C(=O)c1ccccc1-c1ccccc1)C1OC(=O)c2ccccc21 (stereo not drawn)
TGI (HOP-18 NSCLC): 37.4 µM | TGI (SNB-78 CNS): 58.7 µM | TGI (DMS 114 small cell lung): 27.6 µM | TGI (XF 498 CNS): 17.6 µM | TGI (RXF-631 renal): 22.7 µM | TGI (DMS 273 small cell lung): 25.5 µM | TGI (M19-MEL melanoma): 28.8 µM

COc1c(C)cc(O)cc1C=O
TGI (SNB-78 CNS): > 100 µM | TGI (DMS 114 small cell lung): > 100 µM | TGI (RXF-631 renal): > 100 µM | TGI (DMS 273 small cell lung): > 100 µM | TGI (M19-MEL melanoma): > 100 µM | TGI (DLD-1 colon): > 100 µM

CC12OOC(c3ccccc31)c1c2ccc2ccccc12 (stereo not drawn)
TGI (HOP-18 NSCLC): 5.9 µM | TGI (SNB-78 CNS): 21.8 µM | TGI (DMS 114 small cell lung): 2.34 µM | TGI (RXF-631 renal): 20.1 µM | TGI (DMS 273 small cell lung): 21 µM | TGI (M19-MEL melanoma): 9.89 µM | TGI (DLD-1 colon): 3.06 µM | TGI (MDA-N): 19.5 µM

CC(=O)Nc1ccccc1-c1nc2ccccc2nc1C
TGI (HOP-18 NSCLC): > 100 µM | TGI (SNB-78 CNS): > 100 µM | TGI (DMS 114 small cell lung): > 100 µM | TGI (RXF-631 renal): > 100 µM | TGI (M19-MEL melanoma): > 100 µM | TGI (DLD-1 colon): > 100 µM

COC(=O)C1=Cc2cc(OC)c(OC)c(OC)c2[C@H](c2cc(OC)c(OC)c(OC)c2)C1C(=O)OC (stereo partly drawn)
TGI (SNB-78 CNS): > 100 µM | TGI (DMS 114 small cell lung): > 100 µM | TGI (XF 498 CNS): > 100 µM | TGI (RXF-631 renal): > 100 µM | TGI (DMS 273 small cell lung): > 100 µM | TGI (M19-MEL melanoma): > 100 µM | TGI (DLD-1 colon): > 100 µM

COc1cccc2ccc(C(=O)c3ccccc3)nc12
TGI (SNB-78 CNS): > 100 µM | TGI (XF 498 CNS): > 100 µM | TGI (DMS 273 small cell lung): > 100 µM | TGI (DLD-1 colon): > 100 µM

O=C1CC(c2c(-c3ccccc3)[nH]c3ccccc23)C(=O)N1 (stereo not drawn)
TGI (SNB-78 CNS): > 100 µM | TGI (DMS 114 small cell lung): > 100 µM | TGI (XF 498 CNS): > 100 µM | TGI (RXF-631 renal): > 100 µM | TGI (DMS 273 small cell lung): > 100 µM | TGI (M19-MEL melanoma): > 100 µM | TGI (DLD-1 colon): > 100 µM

COc1ccc(OC(C)=O)c2c1CCC=CC2=O
TGI (SNB-78 CNS): > 100 µM | TGI (DMS 114 small cell lung): 36.8 µM | TGI (XF 498 CNS): 31 µM | TGI (DMS 273 small cell lung): 33.8 µM

Cc1c(O)c2ccccc2oc1=O
TGI (MDA-N): > 100 µM

COC1OC(CO)C(O)C(OC(C)=O)C1NC(=O)N(CCCl)N=O (stereo not drawn)
TGI (HOP-18 NSCLC): > 100 µM | TGI (SNB-78 CNS): > 100 µM | TGI (DMS 114 small cell lung): > 100 µM | TGI (XF 498 CNS): > 100 µM | TGI (RXF-631 renal): > 100 µM | TGI (DMS 273 small cell lung): > 100 µM | TGI (M19-MEL melanoma): > 100 µM | TGI (DLD-1 colon): > 100 µM
